Experiments:
Format in all cases: in vivo
[1] = tested on: embryos of Danio rerio (i.e., zebrafish); test: Development of zebrafish embryos levitated in paramagnetic medium
Protocol: To show the applicability of the present methodologies, two experiments using magnetic levitation ([…]) to quantify the change in density in different organisms are described. In particular, experiments were performed on C. elegans and embryos of Danio rerio (i.e., zebrafish). In these embodiments, the paramagnetic salt was chelated Mn•EDTA, and the osmolality of the paramagnetic medium was approximately isotonic with the species under study ( 300 mOsm/kg). The development of zebrafish was monitored over a period of 54 h in a solution of 100 mM Gd•DTPA and 150 mM Gd•DTPA with Percoll and a saline solution (FIG. 4). […] In these experiments, four zebrafish embryos (collected from one strain of fish) were placed into a paramagnetic medium containing Gd•DTPA, Percoll and saline buffer. For these experiments, polystyrene spheres were included as density controls. After 16 hours of monitoring development, the levitation medium was changed to one composed of a higher concentration of the gadolinium chelate.

C. elegans [2] = test: Density of C. elegans by magnetic levitation (MagLev) after exposure to drug; settings: worms treated with 6 mM aspirin (and Nile Red); medium 33% Percoll, 67% M9 buffer, 135 mM Mn•EDTA, 0.057 mM Ivermectin; T=23° C; N=10 worms; untreated 1.074±0.001
Protocol: To show the applicability of the present methodologies, two experiments using magnetic levitation (MagLev) to quantify the change in density in different organisms are described. In particular, experiments were performed on C. elegans and embryos of Danio rerio (i.e., zebrafish). In these embodiments, the paramagnetic salt was chelated Mn•EDTA, and the osmolality of the paramagnetic medium was approximately isotonic with the species under study (˜300 mOsm/kg).
In the experiments on C. elegans, the organism was exposed to aspirin, which results in an accumulation of lipids in the organism due to the sequestration of coenzyme A and the inhibition of fatty acid degradation. A density estimate of C. elegans exposed to aspirin and the density of control C. elegans that were not exposed to aspirin was determined via a Percoll gradient. […] Aspirin-treated C. elegans were centrifuged with a set of density marker beads in order to measure the density of different populations of C. elegans qualitatively and to establish the ranges of interest for quantitative density measurements using MagLev. […]
Using MagLev, the density of different populations of C. elegans was calculated with high precision. […] The magnetic levitation set up used to quantify the density of each worm involved placing the sample between two magnets. […]

C. elegans [3] = test: Density estimate of C. elegans by centrifugation in a Percoll gradient with density marker beads; settings: qualitative
Protocol: In the experiments on C. elegans, the organism was exposed to aspirin, which results in an accumulation of lipids in the organism due to the sequestration of coenzyme A and the inhibition of fatty acid degradation. A density estimate of C. elegans exposed to aspirin and the density of control C. elegans that were not exposed to aspirin was determined via a Percoll gradient. The density of C. elegans changed upon exposure to aspirin with respect to an unexposed control group. Aspirin-treated C. elegans were centrifuged with a set of density marker beads in order to measure the density of different populations of C. elegans qualitatively and to establish the ranges of interest for quantitative density measurements using MagLev. A chelated form of manganese, ethylenediaminetetraacetic acid disodium manganese salt (Mn•EDTA), was used in the MagLev experiments as it is FDA approved for in vivo applications. The analysis of treated and untreated populations of C. elegans by MagLev employed concentrations of Mn•EDTA up to several hundred millimolar. C. elegans were motile within the paramagnetic solution and their swimming motion counteracted the balance of magnetic and gravitational forces within the MagLev device. Ivermectin was introduced into the paramagnetic solution to paralyze the organisms, this stabilized the organisms within the MagLev device.

| Structure (SMILES) | development of embryos in the paramagnetic solution ([1]; 100 mM and 150 mM Gd•DTPA with Percoll and saline solution, monitored over 54 h) | morphology of the embryos after increase in concentration of the paramagnetic salt ([1]; medium changed after 16 hours to a higher concentration of the gadolinium chelate) | density of worms (MagLev) (C. elegans [2]) [g/mL] | density of C. elegans upon exposure, with respect to unexposed control group (C. elegans [3]) |
| --- | --- | --- | --- | --- |
| O=C([O-])CN(CCN(CC(=O)[O-])CC(=O)O)CCN(CC(=O)[O-])CC(=O)O.[Gd+3] [Gd•DTPA] | not affected | did not affect the morphology | – | – |
| CC(=O)Oc1ccccc1C(=O)O [aspirin] | – | – | 1.070 ± 0.002 | changed |
